Assay results reported in ChEMBL document CHEMBL1201862, “PubChem BioAssay data set” (2004).
Active and inactive are the calls of the source.

Key:
[1] = test system: Streptococcus sp. 'group A'; assay: growth inhibition of control SK(-) GAS strain, dose response, counter-screen for streptokinase expression inhibitor project, luminescence, kanamycin, BacTiterGlo, confirmation (AID 1900); type: functional, organism-based
cells [2] = type: functional, cell-based
Streptokinase A = molecular target: T1, Streptokinase A (Streptococcus pyogenes serotype M1, UniProt P10520); assay: S. pyogenes streptokinase expression inhibitors, potency, dose response, plasminogen activation absorbance, OD405 (AID 1914); type: functional, Streptococcus pyogenes M1 GAS;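 also: secreted streptokinase activity via plasminogen activation per viability signal from cell pellet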
T1 sequence (P10520 whole entry): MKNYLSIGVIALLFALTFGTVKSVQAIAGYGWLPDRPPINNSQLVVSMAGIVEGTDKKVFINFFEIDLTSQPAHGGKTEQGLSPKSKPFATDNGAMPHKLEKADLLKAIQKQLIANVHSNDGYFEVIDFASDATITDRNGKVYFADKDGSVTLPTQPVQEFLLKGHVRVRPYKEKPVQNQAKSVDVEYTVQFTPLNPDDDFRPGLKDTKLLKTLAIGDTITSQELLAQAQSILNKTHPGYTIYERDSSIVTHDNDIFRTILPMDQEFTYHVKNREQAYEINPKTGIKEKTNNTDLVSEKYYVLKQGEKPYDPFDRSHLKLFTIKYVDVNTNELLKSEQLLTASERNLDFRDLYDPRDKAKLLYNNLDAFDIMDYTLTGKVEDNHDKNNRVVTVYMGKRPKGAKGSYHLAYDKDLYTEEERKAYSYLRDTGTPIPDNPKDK

[3] = inhibitors of intracellular T. cruzi replication, confirmation, NIH3T3 host cells, beta-gal luminescence (AID 2044); type: functional, cell-based;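 also: intracellular parasites grown in NIH/3T3 mouse fibroblasts as host cells; luminescent beta-galactosidase reporter signal from transgenic T. cruzi replicating inside host cells; inhibitors lower the luminescence signal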
cells [4] = type: functional, cell-based; remark: listed apart in the source
[5] = cytotoxicity toward NIH3T3 fibroblasts, dose response, counter-screen, cell-based, ATP luminescence, mouse fibroblasts (AID 2010); type: functional;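 also: cells exposed to compound for about 90 hours before reading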
Streptococcus = assay: Group A Streptococcus viability loss, dose response, counter-screen for streptokinase expression inhibitor project, luminescence, BacTiterGlo (AID 1915); type: functional, organism-based;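 also: potency for reduction of bacterial viability or growth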
[6] = molecular target: T2, Type-1 angiotensin II receptor (Homo sapiens, UniProt P30556); assay: AT1 receptor agonists, dose response, selectivity assay for APJ receptor agonist project, cell-based, uHTS hits (AID 488865); type: functional;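 also: beta-arrestin recruitment to AT1 measured by enzyme fragment complementation luminescence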
T2 sequence (P30556 whole entry): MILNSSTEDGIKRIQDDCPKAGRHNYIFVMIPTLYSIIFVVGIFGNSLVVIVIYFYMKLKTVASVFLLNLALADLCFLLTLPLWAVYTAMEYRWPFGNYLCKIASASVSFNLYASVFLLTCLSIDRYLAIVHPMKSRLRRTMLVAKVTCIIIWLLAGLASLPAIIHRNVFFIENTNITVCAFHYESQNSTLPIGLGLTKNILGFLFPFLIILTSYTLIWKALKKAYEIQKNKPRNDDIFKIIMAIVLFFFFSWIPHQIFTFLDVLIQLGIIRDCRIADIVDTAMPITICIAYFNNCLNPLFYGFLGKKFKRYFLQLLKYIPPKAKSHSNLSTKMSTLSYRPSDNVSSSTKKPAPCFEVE

INS1 = assay: beta cell apoptosis inhibitors, cytokine rescue, dose response, luminescence, retest (AID 449756); type: functional, cell-based; conditions: Rattus norvegicus;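 also: cell death triggered by IL-1 beta plus TNF-alpha plus IFN-gamma mixture; protective hits raise ATP signal compared with cytokine alone wells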
[7] = Shn3 3'UTR reporter inhibitors, dose response, cell-based, Clone20 osteoblasts, firefly luciferase, cherry-picked (AID 624132); type: functional;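 also: firefly luciferase luminescence from reporter carrying the Shn3 3'UTR in osteoblasts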
[8] = HepG2 cell cytotoxicity, dose response, cytotoxicity control for Shn3 inhibitor project, CellTiter-Glo, cherry-picked (AID 624134); type: functional, cell-based
[9] = control 3'UTR Renilla luciferase suppression, dose response, counter-screen for Shn3 inhibitor project, cell-based, Clone20-Shn3RL, cherry-picked (AID 624133); type: functional
[10] = molecular target: T3, Probable nicotinate-nucleotide adenylyltransferase (Staphylococcus aureus (strain N315), UniProt P65502); type: functional, Staphylococcus aureus subsp. aureus N315;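 as to IC50 Mean: confirmatory dose-response retesting of NadD inhibitor hits first found in an ultra-high-throughput screen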
[11] = molecular target: T3, Probable nicotinate-nucleotide adenylyltransferase; type: functional, Staphylococcus aureus subsp. aureus N315; conditions: read-out: IC50_Mean
BJ [12] = assay: cytotoxicity toward BJ-TERT fibroblasts, dose response, cell-based, RAS-independent, luminescence (AID 1933); type: functional; conditions: Homo sapiens
BJ [13] = assay: cells; type: functional, cell-based; conditions: Homo sapiens
Ion channel NompC = Ion channel NompC (Danio rerio, UniProt Q7T1G6); assay: Dose response cell-based high-throughput screening assay for agonists of the transient receptor potential channel N1 (TRPN1). [Related pubchem assays (depositor defined):AID1424, AID1448]; type: functional
[14] = microbe, parasite or virus in culture; type: functional; conditions: Mycobacterium tuberculosis
Mucolipin-3 = molecular target: T4, Mucolipin-3 (Homo sapiens, UniProt Q8TDD5); assay: Fluorescence counterscreen assay for […] agonists: dose response cell-based high-throughput screening assay to identify agonists of the transient receptor potential channel ML3 (TRPML3). [Related pubchem assays: 1424, 1448 ]; type: functional
T4 sequence (Q8TDD5 whole entry): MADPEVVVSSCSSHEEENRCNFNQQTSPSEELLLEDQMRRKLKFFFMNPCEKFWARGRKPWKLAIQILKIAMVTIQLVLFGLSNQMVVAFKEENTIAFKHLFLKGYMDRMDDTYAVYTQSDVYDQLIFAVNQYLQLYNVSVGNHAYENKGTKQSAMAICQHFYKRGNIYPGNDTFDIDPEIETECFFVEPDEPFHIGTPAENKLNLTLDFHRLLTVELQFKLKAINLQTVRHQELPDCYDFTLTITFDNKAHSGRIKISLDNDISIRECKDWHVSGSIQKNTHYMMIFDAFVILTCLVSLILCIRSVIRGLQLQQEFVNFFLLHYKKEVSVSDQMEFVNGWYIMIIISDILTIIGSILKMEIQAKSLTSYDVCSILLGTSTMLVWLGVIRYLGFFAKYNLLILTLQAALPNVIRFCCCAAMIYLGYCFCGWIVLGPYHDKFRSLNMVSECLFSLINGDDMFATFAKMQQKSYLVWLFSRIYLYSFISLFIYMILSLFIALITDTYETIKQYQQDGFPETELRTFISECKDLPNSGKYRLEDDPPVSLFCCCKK

BJ [15] = assay: cytotoxicity toward BJ-TERT-LT-ST fibroblasts, dose response, cell-based, RAS-independent, luminescence (AID 1935); type: functional; conditions: Homo sapiens;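 also: BJ fibroblasts immortalized with TERT plus LT and ST oncogenes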
[16] = cytotoxicity toward DRD oncogenic fibroblasts, dose response, cell-based, non-viral oncogenic, luminescence (AID 1934); type: functional; conditions: Homo sapiens
Bcl-2-related protein A1 = molecular target: T5, Bcl-2-related protein A1 (Mus musculus, UniProt Q07440); type: functional;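 also: confirmatory dose–response counterscreen on Bfl-1, used to check hits from a UBC13 polyubiquitin inhibitor campaign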
T5 sequence (Q07440 whole entry): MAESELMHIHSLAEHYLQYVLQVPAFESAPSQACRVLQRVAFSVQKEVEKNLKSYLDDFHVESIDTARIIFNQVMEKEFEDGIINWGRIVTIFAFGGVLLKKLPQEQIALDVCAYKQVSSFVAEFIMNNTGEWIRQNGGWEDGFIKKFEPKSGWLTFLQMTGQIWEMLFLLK

[17] = molecular target: T6, Ubiquitin-conjugating enzyme E2 N (Homo sapiens, UniProt P61088); type: functional
T6 sequence (P61088 whole entry): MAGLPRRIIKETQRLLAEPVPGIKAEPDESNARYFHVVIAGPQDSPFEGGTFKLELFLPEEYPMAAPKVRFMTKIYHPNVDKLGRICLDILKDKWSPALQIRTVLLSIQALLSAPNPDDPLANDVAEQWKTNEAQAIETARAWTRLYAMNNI

[18] = molecular target: T6, Ubiquitin-conjugating enzyme E2 N; type: functional; remark: listed apart in the source
[19] = molecular target: T7, DNA repair protein RAD52 homolog (Homo sapiens, UniProt P43351); type: functional, biochemical
T7 sequence (P43351 whole entry): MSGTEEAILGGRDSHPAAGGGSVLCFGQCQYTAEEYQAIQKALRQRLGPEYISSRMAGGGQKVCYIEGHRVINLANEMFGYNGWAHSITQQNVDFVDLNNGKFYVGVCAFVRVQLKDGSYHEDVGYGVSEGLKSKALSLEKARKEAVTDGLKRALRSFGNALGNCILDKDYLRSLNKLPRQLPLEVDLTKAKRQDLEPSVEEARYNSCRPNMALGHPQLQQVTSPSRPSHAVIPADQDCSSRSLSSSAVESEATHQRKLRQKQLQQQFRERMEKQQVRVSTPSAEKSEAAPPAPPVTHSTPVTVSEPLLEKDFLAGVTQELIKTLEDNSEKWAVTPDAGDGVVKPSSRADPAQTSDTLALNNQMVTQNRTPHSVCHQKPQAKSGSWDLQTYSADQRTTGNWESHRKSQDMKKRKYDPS

[20] = HEp-2 cell cytotoxicity, dose response, cytotoxicity control for RSV inhibitor project, HTS (AID 2410); type: functional; conditions: human respiratory syncytial virus

T3 sequence (P65502 whole entry): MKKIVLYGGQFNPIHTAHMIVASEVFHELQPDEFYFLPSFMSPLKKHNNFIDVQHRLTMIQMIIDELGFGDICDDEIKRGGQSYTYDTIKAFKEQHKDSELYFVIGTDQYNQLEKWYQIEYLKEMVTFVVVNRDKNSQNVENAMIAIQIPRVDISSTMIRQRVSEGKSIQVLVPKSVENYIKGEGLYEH
Sequence of Ion channel NompC (Q7T1G6 whole entry): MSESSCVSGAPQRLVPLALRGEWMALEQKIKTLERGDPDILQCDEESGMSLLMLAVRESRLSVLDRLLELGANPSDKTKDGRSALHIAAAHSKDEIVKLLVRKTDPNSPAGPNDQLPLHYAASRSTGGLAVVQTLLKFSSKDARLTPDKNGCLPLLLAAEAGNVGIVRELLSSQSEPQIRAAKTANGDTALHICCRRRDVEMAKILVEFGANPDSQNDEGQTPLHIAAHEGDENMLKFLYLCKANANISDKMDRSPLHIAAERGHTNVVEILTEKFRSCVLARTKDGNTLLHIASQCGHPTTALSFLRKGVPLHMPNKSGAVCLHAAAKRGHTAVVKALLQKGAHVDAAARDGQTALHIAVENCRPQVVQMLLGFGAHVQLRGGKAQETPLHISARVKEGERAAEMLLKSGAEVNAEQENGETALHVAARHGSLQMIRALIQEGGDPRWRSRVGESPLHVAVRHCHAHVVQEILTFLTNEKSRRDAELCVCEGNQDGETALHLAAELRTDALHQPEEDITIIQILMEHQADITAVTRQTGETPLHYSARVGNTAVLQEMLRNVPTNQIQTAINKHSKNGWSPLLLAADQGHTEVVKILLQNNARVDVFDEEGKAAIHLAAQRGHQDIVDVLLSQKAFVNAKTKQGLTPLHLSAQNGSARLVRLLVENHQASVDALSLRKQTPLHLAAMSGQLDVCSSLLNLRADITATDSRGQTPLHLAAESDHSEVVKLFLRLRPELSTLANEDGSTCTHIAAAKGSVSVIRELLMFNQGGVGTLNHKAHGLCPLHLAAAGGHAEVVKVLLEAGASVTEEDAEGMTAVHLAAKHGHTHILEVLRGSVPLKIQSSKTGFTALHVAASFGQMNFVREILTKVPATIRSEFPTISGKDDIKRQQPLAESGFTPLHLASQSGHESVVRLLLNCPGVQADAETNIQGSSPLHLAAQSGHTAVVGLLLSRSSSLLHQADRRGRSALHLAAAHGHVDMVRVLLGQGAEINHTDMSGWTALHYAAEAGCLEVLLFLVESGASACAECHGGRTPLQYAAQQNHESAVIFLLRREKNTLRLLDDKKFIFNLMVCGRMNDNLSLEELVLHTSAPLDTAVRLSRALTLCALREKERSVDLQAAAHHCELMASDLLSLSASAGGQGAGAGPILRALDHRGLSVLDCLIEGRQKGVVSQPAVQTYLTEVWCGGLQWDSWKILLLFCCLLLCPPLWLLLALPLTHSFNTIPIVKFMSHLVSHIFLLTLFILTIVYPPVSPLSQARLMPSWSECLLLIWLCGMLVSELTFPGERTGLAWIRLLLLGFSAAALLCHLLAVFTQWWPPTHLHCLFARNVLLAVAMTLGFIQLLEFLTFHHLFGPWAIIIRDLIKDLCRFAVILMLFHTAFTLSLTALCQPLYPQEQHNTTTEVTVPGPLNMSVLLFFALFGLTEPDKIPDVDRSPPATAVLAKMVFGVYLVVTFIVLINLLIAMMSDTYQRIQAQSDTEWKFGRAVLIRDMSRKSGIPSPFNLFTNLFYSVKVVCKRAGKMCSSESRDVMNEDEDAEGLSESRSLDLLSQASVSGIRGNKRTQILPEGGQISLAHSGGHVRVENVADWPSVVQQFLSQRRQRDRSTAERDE

For Cc1cc(C)c2nc(NNC(=O)c3ccc(S(=O)(=O)N4CCc5ccccc5C4)cc3)sc2c1, the EC50 [1] was 0.458 µM (active), the EC50 (cells [2]) was 7.06 µM (active) and the EC50 (Streptokinase A) was > 150 µM (not active). For the same molecule, the EC50 [3] was 0.661 µM (active), the EC50 (cells [4]) was > 350 µM (not active) and the EC50 [5] was < 6 µM (inconclusive). The EC50 (Streptococcus) was 61.5 µM (inconclusive), the EC50 [6] was > 100 µM (inactive) and the AC50 (INS1) was 2.19 µM (active). The AC50 [7] was 1.98 µM (active), the AC50 [8] was 2.91 µM (active) and the AC50 [9] was 3.35 µM (active). For the same molecule, the IC50 [10] was 7.18 µM (active) and the IC50 [11] was 38.1 µM (active).

With CCN(CC)c1ccc(/C=C2\SC(=O)N(C(C)C)C2=O)o1 the EC50 (BJ [12]) was 11.7 µM (active), the EC50 (BJ [13]) was 20.5 µM (active) and the EC50 (Ion channel NompC) was > 9.97 µM (inactive). For the same molecule, the EC50 [3] was 2.09 µM (active), the CC50 [14] was 38.7 µM (active) and the EC50 (Mucolipin-3) was > 9.97 µM (not active). For the same molecule, the EC50 [5] was 18.4 µM (active), the EC50 (BJ [15]) was > 75 µM (inconclusive) and the EC50 [16] was 35.7 µM (active).

With CCOc1cccc2sc(N(CCCN(C)C)C(=O)c3ccc(S(=O)(=O)N4CCc5ccccc5C4)cc3)nc12 the IC50 (Bcl-2-related protein A1) was > 20 µM (inactive), the IC50 [17] was 8.33 µM (active) and the IC50 [18] was 7.45 µM (active). For the same molecule, the EC50 [6] was > 100 µM (inactive) and the AC50 [19] was 21.2 µM (active).

For COc1ccccc1CC(=O)Nc1ccc([N+](=O)[O-])cc1O, the CC50 [20] was 27.7 µM (active), the EC50 (Ion channel NompC) was > 29.9 µM (inactive) and the EC50 (Mucolipin-3) was > 29.9 µM (not active).
